The experiment has as its target T1, PLK4 (Homo sapiens, UniProt O00444).
T1 sequence (O00444 1-970): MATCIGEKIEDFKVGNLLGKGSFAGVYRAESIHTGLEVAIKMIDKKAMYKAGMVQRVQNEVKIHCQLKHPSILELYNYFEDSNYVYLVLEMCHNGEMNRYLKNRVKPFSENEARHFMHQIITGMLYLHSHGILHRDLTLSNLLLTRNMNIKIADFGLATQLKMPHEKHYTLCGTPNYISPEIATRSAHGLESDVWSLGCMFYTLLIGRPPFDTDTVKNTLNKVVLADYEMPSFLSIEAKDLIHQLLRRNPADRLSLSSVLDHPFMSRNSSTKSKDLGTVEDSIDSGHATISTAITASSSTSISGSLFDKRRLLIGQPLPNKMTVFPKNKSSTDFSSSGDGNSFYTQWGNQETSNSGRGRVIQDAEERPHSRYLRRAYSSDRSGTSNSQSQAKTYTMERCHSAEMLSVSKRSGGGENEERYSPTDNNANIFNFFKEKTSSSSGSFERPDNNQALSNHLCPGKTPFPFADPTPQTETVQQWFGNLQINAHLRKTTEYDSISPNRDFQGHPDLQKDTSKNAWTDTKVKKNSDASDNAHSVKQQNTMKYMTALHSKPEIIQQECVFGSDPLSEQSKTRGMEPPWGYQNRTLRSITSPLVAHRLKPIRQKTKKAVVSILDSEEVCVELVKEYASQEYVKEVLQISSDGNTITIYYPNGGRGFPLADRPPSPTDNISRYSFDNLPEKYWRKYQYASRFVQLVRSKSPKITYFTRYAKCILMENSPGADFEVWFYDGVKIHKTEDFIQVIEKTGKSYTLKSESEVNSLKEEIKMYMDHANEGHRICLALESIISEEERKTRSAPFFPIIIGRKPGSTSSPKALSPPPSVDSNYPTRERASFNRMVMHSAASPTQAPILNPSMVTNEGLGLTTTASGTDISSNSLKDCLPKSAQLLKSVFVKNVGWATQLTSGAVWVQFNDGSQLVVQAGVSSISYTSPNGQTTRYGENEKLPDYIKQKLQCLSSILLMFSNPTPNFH
The experiment is described as follows: Activity (IC50) of the Table 1 compounds as PLK4 inhibitors. Format: biochemical. The note with it: Table 1, IC50 class.

For the molecule `Cc1cc(Nc2nc(Sc3ccc(NC(=O)C4CC4)cc3)nc(NCCN(C)C)c2C)n[nH]1`, the IC50 is less than 100 nM.
With `CNCCN(C)c1nc(Sc2ccc(NC(=O)C3CC3)cc2)nc(Nc2cc(C)[nH]n2)c1C` the figure was less than 100 nM; with `COCCN(C)c1nc(Sc2ccc(NC(=O)C3CC3)cc2)nc(Nc2cc(C)[nH]n2)c1C`, less than 100 nM; with `COc1c(Nc2cc(C)[nH]n2)nc(Sc2ccc(NC(=O)C3CC3)cc2)nc1N1CCOCC1`, less than 100 nM.
For the molecule `COc1c(Nc2cc(C)[nH]n2)nc(Sc2ccc(S(=O)(=O)Cc3ccccc3)cc2)nc1N1CCN(CCN2CCCC2)CC1`, the IC50 is less than 100 nM.
In turn, `Cc1cc(Nc2nc(Sc3ccccc3)nc(N3CCOCC3)c2C)n[nH]1` showed an IC50 of less than 100 nM.
In turn, `CC(=O)Nc1ccc(Sc2nc(Nc3cc(C)[nH]n3)c(C)c(N3CCC(N)CC3)n2)cc1` came in with an IC50 of less than 100 nM.
With `CC(=O)Nc1ccc(Sc2nc(Nc3cc(C)[nH]n3)c(C)c(N3CCC(N(C)C)CC3)n2)cc1`, the IC50 was less than 100 nM.
With `CC(=O)Nc1ccc(Sc2nc(Nc3cc(C)[nH]n3)c(C)c(N3CCC(C)(O)CC3)n2)cc1` the figure was less than 100 nM; with `CCN(CC)c1nc(Sc2ccc(NC(C)=O)cc2)nc(Nc2cc(C)[nH]n2)c1C`, less than 100 nM.
Regarding `Cc1cc(Nc2nc(Sc3ccc(N)cc3)nc(N3CCC(O)CC3)c2C)n[nH]1`, the IC50 is less than 100 nM.
Molecule `Cc1cc(Nc2nc(Sc3ccc(N)cc3)nc(N3CCOCC3)c2C)n[nH]1` yielded a half-inhibitory concentration (IC50) of less than 100 nM.
`COCC(=O)N1CCN(c2nc(Sc3ccccc3)nc(Nc3cc(C)[nH]n3)c2C)CC1` yielded an IC50 of less than 100 nM.
On to `CSc1nc(Nc2cc(C)[nH]n2)c(C)c(N(C)C(C)C)n1`, for which the IC50 is less than 100 nM.
As to `COc1c(Nc2cc(C)[nH]n2)nc(Sc2ccc(NC(C)=O)cc2)nc1N1CCC(CCN(C)C)CC1`, the IC50 is less than 100 nM.
With `CNC(=O)Nc1ccc(Sc2nc(Nc3cc(C)[nH]n3)c(C)c(N(C)C(C)C)n2)cc1` the figure was less than 100 nM.
Molecule `CNC(=O)Nc1ccc(Sc2nc(Nc3cc(C)[nH]n3)c(C)c(N3CCN(C(=O)COC)CC3)n2)cc1` showed a 50% inhibitory concentration (IC50) of less than 100 nM.
The molecule `Cc1cc(Nc2nc(Sc3ccc(N)cc3)nc(N(C)C(C)C)c2C)n[nH]1` had a 50% inhibitory concentration (IC50) of less than 100 nM.
With `COCC(=O)N1CCN(c2nc(Sc3ccc(N)cc3)nc(Nc3cc(C)[nH]n3)c2C)CC1`, the IC50 was less than 100 nM.
`Cc1ccc(Sc2nc(Nc3cc(C)[nH]n3)c(C)c(N3CCC(O)CC3)n2)cc1` had a 50% inhibitory concentration (IC50) of less than 100 nM.
Turning to `Cc1ccc(Sc2nc(Nc3cc(C)[nH]n3)c(C)c(N3CCOCC3)n2)cc1`, the IC50 is less than 100 nM.
The value for `COCC(=O)N1CCN(c2nc(Sc3ccc(C)cc3)nc(Nc3cc(C)[nH]n3)c2C)CC1` was less than 100 nM; that for `COc1c(Nc2cc(C)[nH]n2)nc(Sc2ccc(S(=O)(=O)Cc3ccccc3)cc2)nc1N1CCN(CCN2CCCCC2)CC1` was less than 100 nM; that for `COc1c(Nc2cc(C)[nH]n2)nc(Sc2ccc(S(=O)(=O)Cc3ccccc3)cc2)nc1N1CCN(CCN2C(C)CCCC2C)CC1` (stereo not drawn) was less than 100 nM.
Molecule `COc1c(Nc2cc(C)[nH]n2)nc(Sc2ccc(S(=O)(=O)Cc3ccccc3)cc2)nc1N1CCN(CCN2CCC(O)CC2)CC1` returned an IC50 of less than 100 nM.
As for `CC(=O)Nc1ccc(Sc2nc(Nc3cc(C)[nH]n3)c(Cl)c(N3CCC(O)CC3)n2)cc1`, the IC50 is less than 100 nM.
`CC(=O)Nc1ccc(Cc2nc(N3CCC(O)CC3)nc(Nc3cc(C)[nH]n3)c2Cl)cc1` showed a half-maximal inhibitory concentration (IC50) of less than 100 nM.
As for `CCN(c1nc(Sc2ccc(NC(C)=O)cc2)nc(Nc2cc(C)[nH]n2)c1C)C(C)C`, the IC50 is less than 100 nM.
Take `CC(=O)Nc1ccc(Sc2nc(Nc3cc(C)[nH]n3)c(C)c(N(CCO)C(C)C)n2)cc1`: the IC50 was less than 100 nM.
`CC(=O)Nc1ccc(Sc2nc(Nc3cc(C)[nH]n3)c(C)c(N3CCN(CCN4CCOCC4)CC3)n2)cc1` displayed an IC50 of less than 100 nM.
In turn, `CCOc1c(Nc2cc(C)[nH]n2)nc(Sc2ccc(NC(C)=O)cc2)nc1N1CCC(O)CC1` registered an IC50 of less than 100 nM.
With `Cc1ccc(Sc2nc(Nc3cc(C)[nH]n3)c(C)c(N(C)C(C)C)n2)cc1`, the concentration for half-maximal inhibition (IC50) was less than 100 nM.
With `COCC(=O)N1CCN(c2nc(SC)nc(Nc3cc(C)[nH]n3)c2C)CC1` the figure was less than 100 nM; with `Cc1cc(Nc2nc(Sc3ccc(NC(=O)C4CC4)cc3)nc(N3CCC(O)CC3)c2C)n[nH]1`, less than 100 nM; with `COc1c(Nc2cc(C)[nH]n2)nc(Sc2ccc(CC(=O)C3CC3)cc2)nc1N1CCC(O)CC1`, less than 100 nM.
For `CC(=O)Nc1ccc(Sc2nc(Nc3cc(C)[nH]n3)c(C)c(N3C4CCC3CC(O)C4)n2)cc1` (stereo not drawn), the IC50 is less than 100 nM.
As to `COc1c(Nc2cc(C)[nH]n2)nc(Sc2ccc(NC(C)=O)cc2)nc1N1C2CCC1CC(O)C2` (stereo not drawn), the IC50 was less than 100 nM.
The value for `COc1c(Nc2cc(C)[nH]n2)nc(Sc2ccc(S(=O)(=O)Cc3ccccc3)cc2)nc1N1CCO[C@H](C)C1` was less than 100 nM.
Molecule `COc1c(Nc2cc(C)[nH]n2)nc(Sc2ccc(S(=O)(=O)Cc3ccccc3)cc2)nc1N1CCN(C2CCN(Cc3ccccc3)CC2)CC1` showed an IC50 of less than 100 nM.
The value for `COc1c(Nc2cc(C)[nH]n2)nc(Sc2ccc(S(=O)(=O)Cc3ccccc3)cc2)nc1N1CCO[C@@H](C)C1` was less than 100 nM.
With `COc1c(Nc2cc(C)[nH]n2)nc(Sc2ccc(S(=O)(=O)Cc3ccccc3)cc2)nc1N1CC2CCC(C1)O2` the figure was less than 100 nM.
Regarding `COc1cccc(CS(=O)(=O)c2ccc(Sc3nc(Nc4cc(C)[nH]n4)c(OC)c(N4CCN(CCN(C)Cc5ccccc5)CC4)n3)cc2)c1`, the IC50 is less than 100 nM.
Molecule `COc1c(Nc2cc(C)[nH]n2)nc(Sc2ccc(S(=O)(=O)Cc3ccccc3C)cc2)nc1N1CCN(CCN(C)C)CC1` yielded an IC50 of less than 100 nM.
`COc1c(Nc2cc(C)[nH]n2)nc(Sc2ccc(S(=O)(=O)Cc3ccccc3)cc2)nc1N1CCOC[C@H]1C` yielded an IC50 of less than 100 nM.
With `COc1c(Nc2cc(C)[nH]n2)nc(Sc2ccc(S(=O)(=O)Cc3ccccc3)cc2)nc1N1CCOC[C@@H]1C` the figure was less than 100 nM; with `COc1c(Nc2cc(C)[nH]n2)nc(Sc2ccc(S(=O)(=O)Cc3cccc(F)c3)cc2)nc1N1CCN(CCN(C)C)CC1`, less than 100 nM; with `COc1c(Nc2cc(C)[nH]n2)nc(Sc2ccc(S(=O)(=O)Cc3cccc([N+](=O)[O-])c3F)cc2)nc1N1CCN(CCN(C)C)CC1`, less than 100 nM.
As for `COC(=O)c1cccc(CS(=O)(=O)c2ccc(Sc3nc(Nc4cc(C)[nH]n4)c(OC)c(N4CCN(CCN(C)C)CC4)n3)cc2)c1`, the IC50 was less than 100 nM.
The molecule `COc1c(Nc2cc(C)[nH]n2)nc(Sc2ccc(S(=O)(=O)Cc3cccc(C(N)=O)c3)cc2)nc1N1CCN(CCN(C)C)CC1` returned an IC50 of less than 100 nM.
As for `COc1c(Nc2cc(C)[nH]n2)nc(Sc2ccc(S(=O)(=O)Cc3ccccc3)cc2)nc1N1CCN(CCN2CCC2)CC1`, the IC50 was less than 100 nM.
The value for `COc1c(Nc2cc(C)[nH]n2)nc(Sc2ccc(S(=O)(=O)Cc3ccccc3NC(C)=O)cc2)nc1N1CCN(CCN(C)C)CC1` was less than 100 nM; that for `COc1c(Nc2cc(C)[nH]n2)nc(Sc2ccc(S(=O)(=O)Cc3ccccc3C(F)(F)F)cc2)nc1N1CCN(CCN(C)C)CC1` was less than 100 nM; that for `COc1c(Nc2cc(C)[nH]n2)nc(Sc2ccc(S(=O)(=O)Cc3ccccc3N(C)C)cc2)nc1N1CCN(CCN(C)C)CC1` was less than 100 nM.
As for `COc1c(Nc2cc(C)[nH]n2)nc(Sc2ccc(S(=O)(=O)Cc3ccccc3-c3ccccc3)cc2)nc1N1CCN(CCN(C)C)CC1`, the IC50 is less than 100 nM.
On to `COc1c(Nc2cc(C)[nH]n2)nc(Sc2ccc(S(=O)(=O)Cc3ccccc3C#N)cc2)nc1N1CCN(CCN(C)C)CC1`, for which the IC50 was less than 100 nM.
`COc1c(Nc2cc(C)[nH]n2)nc(Sc2ccc(S(=O)(=O)Cc3cccc(C(=O)N(C)C)c3)cc2)nc1N1CCN(CCN(C)C)CC1`: the IC50 is less than 100 nM.
The molecule `COc1c(Nc2cc(C)[nH]n2)nc(Sc2ccc(S(=O)(=O)Cc3ccccc3C(N)=O)cc2)nc1N1CCN(CCN(C)C)CC1` displayed an IC50 of less than 100 nM.
`COc1c(Nc2cc(C)[nH]n2)nc(Sc2ccc(S(=O)(=O)Cc3ccccc3)cc2)nc1N1CCC(CCN2C3CCCC2CC3)CC1` gave a 50% inhibitory concentration (IC50) of less than 100 nM.
The molecule `COc1c(Nc2cc(C)[nH]n2)nc(Sc2ccc(S(=O)(=O)Cc3cccc([N+](=O)[O-])c3)cc2)nc1N1CCOC[C@H]1C` registered an IC50 of less than 100 nM.
For the molecule `COc1c(Nc2cc(C)[nH]n2)nc(Sc2ccc(S(=O)(=O)Cc3ccccc3)cc2)nc1N1CCN(C2CCNCC2)CC1`, the IC50 was less than 100 nM.
Regarding `COc1c(Nc2cc(C)[nH]n2)nc(Sc2ccc(S(=O)(=O)Cc3ccccc3)cc2Cl)nc1N1CCN(CCN(C)C)CC1`, the IC50 was less than 100 nM.
With `COc1c(Nc2cc(C)[nH]n2)nc(Sc2ccc(S(=O)(=O)Cc3cccc([N+](=O)[O-])c3)cc2)nc1N1CCO[C@H](C)C1` the figure was less than 100 nM.
With `COc1c(Nc2cc(C)[nH]n2)nc(Sc2ccc(S(=O)(=O)Cc3cccc([N+](=O)[O-])c3)cc2)nc1N1CCO[C@@H](C)C1` the figure was less than 100 nM.

In general, IC50 refers to the concentration needed to halve the response being measured. Lower therefore signals greater potency.

For the origin of these results see patent US11612604B2, “Methods of treating cancer with PLK4 inhibitors” (LUDWIG INSTITUTE FOR CANCER RESEARCH LTD, priority 2017, dated 2023).
